The text below walks through data of ChEMBL document CHEMBL1201862, “PubChem BioAssay data set” (2004).

In assay [1] the target is Potassium channel subfamily K member 9 (Homo sapiens, UniProt Q9NPC2). Description: KCNK9 flux blockade, concentration-response – cell-based, FluxOR thallium flux, selectivity assay for TASK1 inhibitor project, SAR follow-up (AID 652211).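 Note: potency is for inhibitors of the channel.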 The format is functional.
Assay [2] has as its target Potassium channel subfamily K member 3 (Homo sapiens, UniProt O14649). Description: inhibition of human KCNK3 channel flux – CHO cells, FluxOR thallium flux, SAR follow-up (AID 652212). The format is functional.
Assay [3] has as its target ADP-ribosylation factor GTPase-activating protein 1 (Rattus norvegicus, UniProt Q62848). Description: Fluorescence polarization-based biochemical high throughput dose response screening assay to identify inhibitors of ADP-ribosylation factor GTPase activating protein 1 (ARFGAP1). In kind it is functional. Background: Fluorescence polarisation rises when a labelled molecule tumbles more slowly, as on binding a larger partner.

A short description of assay [4]: OVCAR8 cell viability loss – plate reader, dry powder samples, PAX8 project, dose response (AID 743197). The format is functional, cell-based. The conditions noted are these: OVCAR-8.
For another assay, the target named is Paired box protein Pax-8 (Homo sapiens, UniProt Q06710). Put plainly: PAX8 transcriptional activity inhibition in RMG-I – RMG-I cells, luciferase, cherry-pick, dose response (AID 687027).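 Note: luciferase reporter driven by Pax8 target thyroperoxidase promoter measured by SteadyGlo luminescence.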 The format is functional, cell-based.
Chain of Paired box protein Pax-8 (Q06710 whole entry): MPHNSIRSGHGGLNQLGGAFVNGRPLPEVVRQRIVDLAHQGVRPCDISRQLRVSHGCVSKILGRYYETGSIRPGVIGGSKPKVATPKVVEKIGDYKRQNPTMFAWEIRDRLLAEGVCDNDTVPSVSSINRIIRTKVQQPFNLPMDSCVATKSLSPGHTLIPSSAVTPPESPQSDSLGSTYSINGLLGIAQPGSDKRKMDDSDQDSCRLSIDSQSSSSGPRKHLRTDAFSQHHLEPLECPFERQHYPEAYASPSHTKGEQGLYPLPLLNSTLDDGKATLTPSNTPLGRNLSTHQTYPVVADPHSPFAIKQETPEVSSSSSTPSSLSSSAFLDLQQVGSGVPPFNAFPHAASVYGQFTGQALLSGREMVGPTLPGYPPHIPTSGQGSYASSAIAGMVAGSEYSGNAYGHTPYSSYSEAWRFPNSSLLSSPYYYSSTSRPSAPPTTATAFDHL
Assay [5] is described as follows: A2780 cell killing – plate reader, dry powder samples, cytotoxicity control, dose response (AID 743046). In kind it is functional, cell-based.
Assay [6] is described as follows: viability loss in HepG2 hepatoma cells – cell-based, cherry-picks, set 5, cytotoxicity control, dose response (AID 1053118). In kind it is functional.
Assay [7] can be described thus: viability loss in HEK293 kidney cells – cell-based, cherry-picks, set 5, cytotoxicity control, dose response (AID 1053117). In kind it is functional.
For assay [8], the target named is T1, Sentrin-specific protease 8 (Homo sapiens, UniProt Q96LD8).
T1 sequence (Q96LD8 whole entry): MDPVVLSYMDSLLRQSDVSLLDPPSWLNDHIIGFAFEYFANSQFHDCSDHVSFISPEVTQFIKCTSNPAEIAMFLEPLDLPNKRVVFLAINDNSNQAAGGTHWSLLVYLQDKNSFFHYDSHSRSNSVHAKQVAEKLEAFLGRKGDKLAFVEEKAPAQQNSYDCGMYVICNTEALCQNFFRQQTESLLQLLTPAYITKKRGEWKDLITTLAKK
In kind it is functional.

For assay [9], the target named is T1, Sentrin-specific protease 8. The format is functional. This is another data set of the same source.
Assay [10] can be described thus: cytotoxicity in HEK293 background cells – cell-based, dry powder, set 2, counter-screen for EBV LMP1 inhibitor project, dose response (AID 624374). In kind it is functional. In general terms: A counterscreen serves to expose hits that act by an unwanted route or on another target.
Assay [11] deals with T2, Beta Lactamase (Pseudomonas aeruginosa, UniProt Q932Y6). Put plainly: concentration-dependent VIM-2 enzyme inhibition – biochemical, epi-absorbance readout, selective inhibitors, dose response (AID 1919).
T2 sequence (Q932Y6 whole entry): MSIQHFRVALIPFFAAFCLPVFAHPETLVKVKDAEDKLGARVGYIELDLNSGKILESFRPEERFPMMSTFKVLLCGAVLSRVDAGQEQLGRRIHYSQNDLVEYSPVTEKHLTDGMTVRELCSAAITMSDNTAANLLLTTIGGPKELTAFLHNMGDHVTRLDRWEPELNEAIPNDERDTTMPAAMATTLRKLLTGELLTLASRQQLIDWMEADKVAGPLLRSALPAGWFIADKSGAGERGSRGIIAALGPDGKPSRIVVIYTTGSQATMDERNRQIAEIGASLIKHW
The target in assay [12] is T2, Beta Lactamase. Put plainly: VIM-2 CCF2 hydrolysis inhibition, assay artifact filter – biochemical, FRET readout, CCF2 substrate, artefact control for selective VIM-2 inhibitor project, dose response (AID 1926).
Assay [13] addresses T3, Beta-lactamase (Pseudomonas aeruginosa, UniProt Q79MP6). Description: inhibition of IMP-1 beta-lactamase activity – biochemical, epi-absorbance, selectivity assay for VIM-2 inhibitor project, dose response (AID 1920).
The target of another assay is Genome polyprotein (dengue virus type 2, UniProt P29990). Put plainly: flavivirus cap methylation enzyme inhibition – biochemical, confirmation dose response, primary screen (AID 588689). The format is functional.
Chain of Genome polyprotein (P29990 2492-3391 limits assumed): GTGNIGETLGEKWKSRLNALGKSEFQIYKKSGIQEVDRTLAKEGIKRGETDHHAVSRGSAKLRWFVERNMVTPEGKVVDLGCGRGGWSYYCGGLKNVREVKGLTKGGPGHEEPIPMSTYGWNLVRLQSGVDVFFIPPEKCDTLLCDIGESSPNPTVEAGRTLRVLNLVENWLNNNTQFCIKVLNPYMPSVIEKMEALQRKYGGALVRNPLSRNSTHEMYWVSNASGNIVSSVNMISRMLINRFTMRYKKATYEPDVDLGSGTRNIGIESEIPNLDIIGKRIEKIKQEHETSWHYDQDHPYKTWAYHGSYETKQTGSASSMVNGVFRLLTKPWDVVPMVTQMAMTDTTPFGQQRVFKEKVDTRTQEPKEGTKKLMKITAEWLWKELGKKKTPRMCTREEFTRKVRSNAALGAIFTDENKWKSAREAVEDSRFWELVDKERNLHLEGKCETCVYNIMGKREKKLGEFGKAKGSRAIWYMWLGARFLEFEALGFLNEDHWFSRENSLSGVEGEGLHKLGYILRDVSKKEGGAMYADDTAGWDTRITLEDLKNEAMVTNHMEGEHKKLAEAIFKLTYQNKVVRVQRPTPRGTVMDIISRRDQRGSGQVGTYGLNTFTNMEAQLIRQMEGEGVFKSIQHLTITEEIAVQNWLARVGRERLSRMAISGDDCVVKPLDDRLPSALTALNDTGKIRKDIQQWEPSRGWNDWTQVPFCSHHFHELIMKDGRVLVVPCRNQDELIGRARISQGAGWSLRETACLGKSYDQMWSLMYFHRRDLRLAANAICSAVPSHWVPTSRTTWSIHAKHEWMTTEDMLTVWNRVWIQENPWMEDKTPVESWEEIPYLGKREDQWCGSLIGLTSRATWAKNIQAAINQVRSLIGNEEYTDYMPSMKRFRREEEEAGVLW
The target of assay [14] is Beta-lactamase (Salmonella choleraesuis (strain SC-B67), UniProt Q5J463). Description: Epi-absorbance-based counterscreen for selective VIM-2 inhibitors: dose response biochemical high throughput screening assay to identify inhibitors of TEM-1 serine-beta-lactamase.
Chain of Beta-lactamase (Salmonella choleraesuis (strain SC-B67), UniProt Q5J463) (Q5J463 whole entry, the tested form may be a part): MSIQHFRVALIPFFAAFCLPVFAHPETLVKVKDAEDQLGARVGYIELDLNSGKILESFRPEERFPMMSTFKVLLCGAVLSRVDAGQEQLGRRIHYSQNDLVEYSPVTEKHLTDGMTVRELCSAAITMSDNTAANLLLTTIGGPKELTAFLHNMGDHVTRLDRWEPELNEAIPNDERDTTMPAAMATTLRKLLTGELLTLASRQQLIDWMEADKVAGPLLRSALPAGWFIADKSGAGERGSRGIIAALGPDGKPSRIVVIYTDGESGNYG
For assay [15], the target named is T4, Carboxy-terminal domain RNA polymerase II polypeptide A small phosphatase 1 (Homo sapiens, UniProt Q9GZU7).
T4 sequence (Q9GZU7 whole entry): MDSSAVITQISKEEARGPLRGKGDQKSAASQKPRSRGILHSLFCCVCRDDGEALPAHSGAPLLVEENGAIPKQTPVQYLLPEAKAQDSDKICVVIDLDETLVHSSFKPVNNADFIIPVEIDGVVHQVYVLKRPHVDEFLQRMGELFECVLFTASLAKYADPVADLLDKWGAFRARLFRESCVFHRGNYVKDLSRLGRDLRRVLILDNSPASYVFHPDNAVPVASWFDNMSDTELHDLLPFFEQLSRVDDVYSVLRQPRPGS
Put plainly: CTDSP1 inhibitors, concentration-response, biochemical, absorbance readout, ultra-high-throughput screen actives (AID 540297). The format is functional.

The target in assay [16] is T3, Beta-lactamase. Put plainly: […] counterscreen for selective VIM-2 inhibitors: dose response biochemical high throughput screening assay to identify inhibitors of IMP-1 metallo-beta-lactamase.
Assay [17] is described as follows: general mammalian cell viability loss – inhibitor set, cherry-pick, set 2, cytotoxicity control for miR-122 modulator project, dose response (AID 720697). The format is functional, cell-based.
Assay [18] can be described thus: blockers of bursicon-stimulated LGR2 cAMP reporter – cell-based, HEK293, CRE-luciferase reporter, cherry pick, set 2, dose response (AID 743343).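 Note: transfected cells were stimulated with diluted bursicon conditioned medium after compound addition.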 In kind it is functional.
Another assay concerns HT-1080. Description: HT1080 cell viability loss – fluorescence readout (AID 620). In kind it is functional, cell-based. To be noted: Homo sapiens.
Another assay in a line: cells. In kind it is functional, cell-based.
Assay [19] is described as follows: A549 cell cytotoxicity, dose response, cytotoxicity control, plate reader, cherry-pick, antagonist series (AID 743412). In kind it is functional, cell-based.
Assay [20] addresses Luciferin 4-monooxygenase (Photinus pyralis, UniProt P08659). Put plainly: Counter Screen for Luciferase-based Assay Positives. [Related pubchem assays: 620, 618, 411 ].
Assay [21] in a line: toxicity toward HepG2 liver cells – cell-based, plate reader, cherry-pick, antagonist series, cytotoxicity control, dose response (AID 743416). In kind it is functional.
Assay [22] concerns the target T5, Nuclear receptor subfamily 0 group B member 1 (Homo sapiens, UniProt P51843).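 Note: HEK293T cells transfected with SF-1 and DAX-1 plus StAR promoter luciferase reporter.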
T5 sequence (P51843 whole entry): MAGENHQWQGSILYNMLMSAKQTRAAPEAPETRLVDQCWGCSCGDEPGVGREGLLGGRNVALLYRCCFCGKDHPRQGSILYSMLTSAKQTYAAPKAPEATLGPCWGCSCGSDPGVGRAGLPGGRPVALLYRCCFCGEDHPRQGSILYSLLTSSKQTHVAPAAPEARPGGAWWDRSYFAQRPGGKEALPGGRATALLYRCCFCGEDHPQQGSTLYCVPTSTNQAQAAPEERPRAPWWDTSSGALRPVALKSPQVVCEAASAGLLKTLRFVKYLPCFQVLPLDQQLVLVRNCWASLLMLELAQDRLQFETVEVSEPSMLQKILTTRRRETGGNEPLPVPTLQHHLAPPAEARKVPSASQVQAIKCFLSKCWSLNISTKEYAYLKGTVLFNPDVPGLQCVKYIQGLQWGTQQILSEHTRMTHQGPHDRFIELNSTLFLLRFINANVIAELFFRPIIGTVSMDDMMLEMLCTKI
In kind it is functional, cell-based.

Assay [23] is described as follows: blockade of melanocortin 4 receptor signaling – cell-based, plate reader, cherry pick, counter-screen for LGR2 antagonist project, dose response (AID 743444).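 Note: transfected HEK 293 cells stimulated with alpha-MSH peptide; potency of inhibitors of the alpha-MSH evoked signal.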 The format is functional.

Structures are written as SMILES. The source made the active and inactive calls.

T3 sequence (Q79MP6 whole entry): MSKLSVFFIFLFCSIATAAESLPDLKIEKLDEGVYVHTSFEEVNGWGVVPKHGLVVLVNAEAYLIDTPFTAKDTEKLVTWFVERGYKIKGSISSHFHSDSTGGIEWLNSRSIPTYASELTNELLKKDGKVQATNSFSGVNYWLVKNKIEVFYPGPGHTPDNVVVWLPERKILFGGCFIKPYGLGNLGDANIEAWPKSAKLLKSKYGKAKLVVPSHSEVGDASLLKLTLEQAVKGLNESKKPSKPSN
Chain of Potassium channel subfamily K member 9 (Q9NPC2 whole entry): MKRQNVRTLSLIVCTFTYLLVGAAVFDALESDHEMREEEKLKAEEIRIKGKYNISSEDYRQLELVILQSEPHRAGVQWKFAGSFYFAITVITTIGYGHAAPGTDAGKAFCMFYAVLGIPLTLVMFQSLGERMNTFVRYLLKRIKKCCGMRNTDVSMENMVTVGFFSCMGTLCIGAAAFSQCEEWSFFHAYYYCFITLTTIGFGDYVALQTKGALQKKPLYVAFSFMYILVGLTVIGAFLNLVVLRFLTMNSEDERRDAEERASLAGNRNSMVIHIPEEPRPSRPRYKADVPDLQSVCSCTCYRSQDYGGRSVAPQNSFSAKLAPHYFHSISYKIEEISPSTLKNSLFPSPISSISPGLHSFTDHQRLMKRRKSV
Chain of Luciferin 4-monooxygenase (P08659 whole entry): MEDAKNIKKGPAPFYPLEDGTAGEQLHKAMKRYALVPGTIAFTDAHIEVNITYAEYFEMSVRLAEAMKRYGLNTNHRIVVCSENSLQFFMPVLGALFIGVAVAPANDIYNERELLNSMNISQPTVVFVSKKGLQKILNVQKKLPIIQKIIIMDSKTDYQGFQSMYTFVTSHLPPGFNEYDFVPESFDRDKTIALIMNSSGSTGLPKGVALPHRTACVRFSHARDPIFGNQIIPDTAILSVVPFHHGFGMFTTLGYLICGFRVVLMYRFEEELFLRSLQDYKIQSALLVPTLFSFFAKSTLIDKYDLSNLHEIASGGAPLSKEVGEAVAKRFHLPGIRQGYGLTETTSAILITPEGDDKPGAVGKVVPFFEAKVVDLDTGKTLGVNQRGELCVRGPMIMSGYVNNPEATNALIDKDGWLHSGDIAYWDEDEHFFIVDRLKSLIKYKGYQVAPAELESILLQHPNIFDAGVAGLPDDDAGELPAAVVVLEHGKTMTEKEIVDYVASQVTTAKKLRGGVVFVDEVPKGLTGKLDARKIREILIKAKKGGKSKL
Chain of Potassium channel subfamily K member 3 (O14649 whole entry): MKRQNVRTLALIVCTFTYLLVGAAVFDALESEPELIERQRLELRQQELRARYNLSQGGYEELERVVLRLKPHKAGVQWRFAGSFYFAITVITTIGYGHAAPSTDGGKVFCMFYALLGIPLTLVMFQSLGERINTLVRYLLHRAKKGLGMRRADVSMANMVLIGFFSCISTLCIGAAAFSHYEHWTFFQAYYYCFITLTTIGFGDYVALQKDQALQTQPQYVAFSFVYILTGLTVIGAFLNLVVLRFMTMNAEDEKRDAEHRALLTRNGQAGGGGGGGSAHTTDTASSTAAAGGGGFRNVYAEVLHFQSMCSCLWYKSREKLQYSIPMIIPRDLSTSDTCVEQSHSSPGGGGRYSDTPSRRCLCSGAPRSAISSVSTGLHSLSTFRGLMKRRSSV
Chain of ADP-ribosylation factor GTPase-activating protein 1 (Q62848 whole entry): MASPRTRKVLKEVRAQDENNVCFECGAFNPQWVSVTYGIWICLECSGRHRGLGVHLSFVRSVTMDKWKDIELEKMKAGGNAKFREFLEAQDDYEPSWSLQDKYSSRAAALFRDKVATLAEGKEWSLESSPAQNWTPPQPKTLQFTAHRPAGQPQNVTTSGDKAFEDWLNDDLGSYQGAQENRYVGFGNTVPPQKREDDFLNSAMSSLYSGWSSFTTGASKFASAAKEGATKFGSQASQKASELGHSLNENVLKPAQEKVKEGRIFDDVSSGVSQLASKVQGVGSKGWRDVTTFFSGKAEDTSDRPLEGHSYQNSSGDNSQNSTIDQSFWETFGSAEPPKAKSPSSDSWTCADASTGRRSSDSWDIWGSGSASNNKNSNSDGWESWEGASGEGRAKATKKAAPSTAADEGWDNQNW

`O=C(Nc1ccccc1Cl)c1cccc(NC(=O)C2CCCC2)c1`: the results for the IC50 in [1] and in assay [2] were 5.78 µM (active) and 0.202 µM (active), respectively.

As for `Cc1ccc(NC(=O)NNC(=O)COc2ccc([N+](=O)[O-])cc2)cc1C`, the IC50 in [3] is 34.5 µM (inactive).

In the case of `Cc1ccc(S(=O)(=O)Nc2ccc3c(c2)C(=O)N([C@H](C)CO)C[C@@H](C)[C@H](CN(C)S(=O)(=O)c2ccccc2)OCCCC[C@H](C)O3)cc1`, the AC50 in [4] is > 70 µM (inactive); at Paired box protein Pax-8, 8.05 µM (active); in [5] it was 29.5 µM (active).

Consider `CO[C@@H]1CN(C)C(=O)c2cc(NC(=O)Nc3cc(Cl)cc(Cl)c3)ccc2OC[C@@H](C)NC[C@@H]1C`, for which the AC50 in [6] is 23.8 µM (active); in assay [7], 36.7 µM (active).

For the compound `O=C(c1ccccc1)[C-](C(=O)c1ccc(Cl)cc1)[n+]1ccc2ccccc2c1`, the IC50 in [8] was 9.23 µM (active); in [9], > 100 µM (inactive).

Take `Cc1noc(C)c1S(=O)(=O)Nc1ccc2c(c1)C(=O)N([C@H](C)CO)C[C@H](C)[C@H](CN(C)Cc1ccc(C(F)(F)F)cc1)OCCCC[C@@H](C)O2`: the AbsAC35 in [10] came to 79.09 µM.

For the compound `Oc1c(Br)cc(/C=N/n2c(S)nnc2-c2ccccc2)cc1Br`, the IC50 is 19.3 µM (inactive) on Beta Lactamase [11]; 6.1 µM (active) on Beta Lactamase [12]; > 59.6 µM (inactive) on Beta-lactamase [13]; 27.5 µM (active) on Genome polyprotein; > 59.6 µM (inactive) at Beta-lactamase [14]; 1.54 µM (active) in assay [15]. Also, the IC50 at Beta-lactamase [16] was > 19.9 µM (inactive).

For the compound `Cc1ccc(-c2ccc3c(c2)O[C@H](CN(C)C(=O)CC2CC2)[C@H](C)CN([C@@H](C)CO)S3(=O)=O)cc1`, the AC50 in assay [17] was 10.4 µM (active).

As to `COc1ccc(C(=O)Nc2nnc(-c3ccco3)s2)cc1`, the half-maximal activity concentration (AC50) in assay [18] is 3.75 µM (active); in assay [19], > 52 µM (inactive); in assay [21], > 52 µM (inactive); in assay [23], 3.67 µM (active). Further, the values for the EC50 (in the assay with HT-1080; in assay [20]) were > 50 µM (not active) and > 100 µM (not active), respectively. Also, the IC50 (in the assay “cells”; in [22]) was > 67.5 µM (inactive) each time.

The IC50 is the midpoint of a concentration-inhibition curve. As usually defined, the AC50 is the midpoint of the concentration-response curve, whichever way the signal moves. What is called EC50 is the midpoint of the concentration-response curve. Lower therefore signals greater potency.
